Tests used:
Assay type in all cases: cell-based
[1] = system: lens epithelial cells; experiment: morphology of lens epithelial cells grown in amniotic fluid from injected mice; conditions: amniotic fluid from mice injected once s.c. at 12-15 days gestation, harvested 1-2 h after; diluted to 50% with culture medium; two days' culture
Protocol: Mice of numerous genotypes were taken from amongst all the more prolific strains available from the Institute of Animal Genetics Mouse House (Mouse News Letter, 1974). They were mated and the pregnancies dated by vaginal plug. They were injected once, subcutaneously, with a teratogen, between 12-15 days of gestation in order to obtain a large volume of clear amniotic fluid. 1-2 hours after the injection the mice were killed by cervical dislocation, the uteri removed and the amniotic fluid harvested under sterile conditions, passed through a Millex filter and stored at -20°C. Control amniotic fluids were obtained from uninjected mice of a similar range of genotypes and stages of gestation. Mice were injected with double the teratogenic doses used for 6-aminonicotinamide by Pinsky and Fraser (Biol. Neonat., 1,106-112 (1959)) and for sodium acetyl salicylate by Larsson and Erickson (Acta. Paed. Scand., 55, 569-576, )1976)), but the amniotic fluids were diluted to 50% with culture medium for use, thus giving a final concentration similar to that used by these authors. Five batches of pooled amniotic fluid of each kind were prepared in this way and tested in separate culture experiments. […]

[2] = system: lens epithelial cells; experiment: protein profile (accumulated protein, stained isoelectric focussing gels) of lens epithelial cells grown in amniotic fluid from injected mice; conditions: diluted to 50% with culture medium; for changes in the protein profile (bands of stained gels): Coomassie Blue stained gels, densitometry
Protocol: Similar densitometry is made of the autoradiograph of the gels. Each analysis can be done on a culture grown from a cell suspension of as little as 1-4.5 × 10^5 cells, but can be scaled up or down as required.
Mice of numerous genotypes were taken from amongst all the more prolific strains available from the Institute of Animal Genetics Mouse House (Mouse News Letter, 1974). They were mated and the pregnancies dated by vaginal plug. They were injected once, subcutaneously, with a teratogen, between 12-15 days of gestation in order to obtain a large volume of clear amniotic fluid. 1-2 hours after the injection the mice were killed by cervical dislocation, the uteri removed and the amniotic fluid harvested under sterile conditions, passed through a Millex filter and stored at -20°C. Control amniotic fluids were obtained from uninjected mice of a similar range of genotypes and stages of gestation. Mice were injected with double the teratogenic doses used for 6-aminonicotinamide by Pinsky and Fraser (Biol. Neonat., 1,106-112 (1959)) and for sodium acetyl salicylate by Larsson and Erickson (Acta. Paed. Scand., 55, 569-576, )1976)), but the amniotic fluids were diluted to 50% with culture medium for use, thus giving a final concentration similar to that used by these authors. Five batches of pooled amniotic fluid of each kind were prepared in this way and tested in separate culture experiments.
Cultures of dissociated lens epithelial cells were prepared according to Okada, Eguchi and Takeichi (Dev. Growth Diffn., 13,323-326 (197l)), and plated at 4.5 × 10^5 cells per dish in 3.5 ml Earles MEM (Biocult) containing 6% foetal calf serum (Gibco). The medium was changed at 2 days, and after 4 days, when these cells were in log phase, the medium was replaced by 1 ml of medium and 1 ml of amniotic fluid. After two further days the cells were labelled for 4 to 5 hours with ^14 C mixed amino acids (Amersham) at 20 μCi/ml. The cultures were washed several times in Hanks solution, harvested with a miniature plastic scraper and taken up into a drop of 8M urea containing 10 mM β-mercaptoethanol. The drop was frozen and thawed three times to liberate the cell contents. When required, the living cells were examined with a Gilbert and Siebert inverted phase microscope.
Polyacrylamide gels containing ampholines according to Wrigley (Science Tools, 15, 17-23, (1968)) were modified to contain 6M urea, 10mM β-mercaptoethanol, and an ampholine mixture giving a gradient from pH 3 to 10, flattened in the region of 4.5 to 7.0. Such gels give especially high resolution for crystallins and are now routinely used in my laboratory. 20 μl of cell preparation was added to each gel which was electrofocussed overnight according to Wrigley (loc. cit.). […]

[3] = system: test cells; experiment: screening test for teratogenic activity with cells cultured in amniotic fluid; conditions: tests on two teratogens in the mouse
Text: According to my invention I provide a process for screening a compound for teratogenic activity comprising administering the compound being screened to a test animal, removing amniotic fluid from the test animal, using the amniotic fluid removed as part or all of a cell culture medium, and measuring the effect on cell properties of cells grown in the culture medium containing the amniotic fluid from the test animal as compared with the use of amniotic fluid from an otherwise identical control animal that has not had the compound being screened administered to it.
(1) Amniotic fluid is used as cell culture medium or as an additive to a standardised cell culture medium in order to test the substance as processed by the maternal organism. Amniotic fluids either from animals of diverse genotype or of selected genotypes, as required, are pooled. […]
(2) A standardised cell suspension is innoculated into cultures and grown during log phase in the medium containing amniotic fluid from a control or test series as described above. […] Lens epithelium has been used since I have published evidence that quantitative regulation of specific syntheses is of especial importance in this orgen and the assay system described in (3) below detects changes in mitotic rate, cell mass, and growth conditions, cell surface modification and genetically determined pathology. […]

Row | SMILES | cell outline / morphology [1] | other quantitative changes in the protein profile [2] | changes in the protein profile (bands of stained gels) [2] | discrimination of treated cells from control cells [3]
1 | CC(=O)Oc1ccccc1C(=O)O [sodium acetyl salicylate] | normal in morphology | Other quantitative changes were also observed | lacking in the band which was enhanced by 6-aminonicotinamide treatment | distinguish reliably and specifically between the cells treated by each of these teratogens, and control cells
2 | NC(=O)c1ccc(N)nc1 [6-aminonicotinamide] | modified cell outline | some other, less striking quantitative changes were also recorded | one band being missing and one exaggerated | distinguish reliably and specifically between the cells treated by each of these teratogens, and control cells
